Results as given in patent publication US11020449B2, “Use of the GK-1 peptide as an antitumoral and/or antimetastatic agent” (UNIVERSIDAD NACIONAL AUTÓNOMA DE MÉXICO, priority 2016, dated 2021).
Where two headings read alike, the source gives them in different places.

Experiments:
[1] = test system: 4T1 mammary carcinoma murine model
Method: Lungs, liver, spleen, brain, and primary tumor were dissected from mice in the groups G1 and G2 of the Example of Embodiment 3, to determine the soluble factors present in the tumor microenvironment and in metastatic-associated organs; in order to obtained a protein extract, 5 mg of each tissue were weighed and placed in 300 μL of lysis buffer with protease inhibitors, then were homogenized. Finally, homogenates were centrifuged for 20 min at 13 000 rpm at 4° C., collecting the supernatants (protein extract). Additionally, serum was isolated from blood samples obtained from all mice. Serum and protein extract samples were processed through the Magpix Luminex system (xPonent software) to determine the concentration of cytokines, chemokines, and growth factors.
Data in Tables 2, 3, and 4 correspond to spleen, lung, and brain soluble factor concentrations expressed in pg/mg of protein. A random sample of 6 mice was taken from 5 independent experiments. * P<0.05.

[2] = test system: influenza vaccine; details: cited from earlier work
[3] = test system: 4T1 cells; assay: Survival rate in mice with 4T1 breast cancer; format: in vivo, BALB/cAnN mice; details: log-rank test
Method: As used in the following Examples of Embodiment, GK-1 was synthesized under good manufacturing practices by USV, LTD, with a purity higher than 95%. The peptide was intravenously administered to mice at a dose of 0.5 mg/kg.
Four to six weeks-old female and male BALB/cAnN mice were used, with a weight range of 17-23 g for females and 20-27 g for males. All mice were maintained in pathogen-free conditions, as required by the Mexican Official Regulation NOM-062-ZOO-1999.
J. et al., Cancer Res, 1992. […] 279(45):46659-67]. […] The administration was repeated weekly at different times.
To determine the survival rate in mice with breast cancer, 1×10^3 4T1 cells were implanted to 40 BALB/cAnN mice as described in the Example of Embodiment 1; 10 males and 10 females were included in each group (G1 and G2). The administration schedule described in the Example of Embodiment 1 was repeated weekly after a solid tumor development, and for 62 days after cell implant.

[4] = test system: B16-F10 cells; details: for Number of tumors developed (Tumors): 10 μg GK-1 i.v. weekly, 32 days, mean±standard deviation
Method: To evaluate the antimetastatic effect of GK-1 in melanoma, 2×10^4 cells of the B16-F10 line were intravenously injected to C57BL/6 mice (n=40; 20 females and 20 males). At day 16 post-implantation, mice were separated into two groups: The G1 group (10 males and 10 females) was intravenously administered with 10 μg of GK-1 dissolved in 100 μL of ISS; the G2 group (10 males, 10 females) was intravenously administered with 100 μL of ISS. Treatments were repeated weekly for 32 days after cell implantation.

[5] = test system: B16-F10 cells; assay: B16-F10 melanoma model: survival rate and lung tumor foci (four groups); format: in vivo, C57BL/6 mice; details: for survival rate: i.v. weekly, 32 days after implantation
Method: The B16 melanoma model is a lung metastasis model widely used for therapy evaluation. While the term “lung metastasis” is used to characterize this type of model, technically each lung nodule is a primary tumor.
Once the tumor is established (16 days after B16-F10 cells were implanted), mice were separated into four groups: One group was administered with a 0.10 μg/μL GK-1 solution in DMSO (0.05%); another group was administered with 0.10 μg/μL GK-1 solution in ISS; a third group received 100 μL of DMSO (0.05%); and a fourth group was administered with 100 μL of ISS; treatments were applied intravenously in all cases. Treatments were repeated weekly after a palpable tumor appeared and for 32 days after cell implantation.
In order to establish the antitumor effect of GK-1, lungs were dissected from mice in all experimental groups at the day 32 post-implantation, and were fixed in a 10% formaldehyde solution to macroscopically determine the number of tumor foci developed.

[6] = test system: T cell, macrophage, and dendritic cells; details: in vitro; cited from earlier work
[7] = test system: 4T1 cells; details: day 39, five experiments
From the text: It is known that the metastasis sites in the 4T1 cell-induced breast cancer murine model are lungs, brain, liver, and bone [Aslakson C. J. et al., Cancer Res. 1992, 52(6): 1399-405; Mi Z. et al., J Biol Che. 2004; 279(45): 46659-67]. Therefore, to assess the antimetastatic effect of GK-1, lungs, liver, and brain from mice in G1 and G2 groups in the Example of Embodiment 3 were recovered and fixed with a 10% formaldehyde solution to macroscopically identify any metastatic focus on these organs.

[8] = test system: 4T1 cells
Method: The 4T1 cell line (American Type Culture Collection, Manassas, Va.) was used to induce a neoplasia emulating breast cancer; according to the natural history of the disease, metastasis to lung should be observed [Aslakson C. J. et al., Cancer Res, 1992. 52(6): 1399-405; Mi Z et al., J Biol Chem, 2004. 279(45):46659-67]. The 4T1 cell line was cultured in RPMI medium (Gibco, Grand Island, N.Y.) supplemented with 10% of heat-inactivated fetal bovine serum, 10 U/mL of penicillin, and 100 μg/mL of streptomycin, at 37° C. under 95% relative humidity and 5% CO2. Cultured cells were recovered by trypsinization (0.25% trypsin-0.53 mM EDTA) and washed three times with cold serum-free RPMI medium before subcutaneous implanting. About 1×10^3 4T1 cells were subcutaneously injected in the right mammary gland in BALB/cAnN mice. Tumor induction was determined by the appearance of 1 mm×1 mm solid tumors (palpable tumor), between 18 and 20 days after cell implantation. Once the established tumors reached that size, mice were distributed into two groups: Group 1 (G1) was intravenously administered with a solution of 10 μg of GK-1 in 100 μL of ISS (corresponding to 0.5 mg/kg); Group 2 (G2) was administered with ISS (100 μL) by the same route. The administration was repeated weekly at different times.
All animals were weighed before treatment, and tumor growth was continuously recorded. Tumor volume was calculated according to the following formula [Carlsson G. et al., J Cancer Res Clin Oncol, 1983. 105(1): 20-23]: Volume (mm^3)=πLW^2/6, where L is the largest side and W is the smallest side.
At the day 39 after cell implanting, animals were euthanized in accordance with the guidelines in the United Kingdom Coordinating Committee on Cancer Research (UKCCCR). The primary tumor, spleen, lungs, liver, and brain were dissected. In total, five separate experiments were performed.
As mentioned in the Example of Embodiment 1, once palpable tumors were developed in mice (G1: females X=6, males X=4; G2: females X=6, males X=4 per experiment), tumor volume was determined every third day for 39 days, with electronic Vernier.

[9] = test system: 4T1 cells; details: superficial zone, day 39
Method: A histological analysis was performed on primary tumors at day 39 post-implantation, to determine the percentage of zones with tissue death in mice from the Example of Embodiment 3. All tumors were manually sectioned and fixed in a 10% formaldehyde solution overnight at 4° C. Then, samples were included in paraffin and processed to obtain 4-μm slices; slices were stained with hematoxylin and eosin (H&E). The upper, middle, and deep tumor sections were analyzed through an Olympus B×50 microscope equipped with a digital camera and using the Infinity Analyze software (v6.3.0).

[10] = test system: TCD4+ and TCD8+ lymphocyte populations; details: cited from earlier work
[11] = test system: melanoma; details: mouse melanoma model; cited from earlier work
[12] = test system: dendritic cells (DCs) loaded with the MAGE antigen; details: immunotherapy against murine melanoma; cited from earlier work

## G-Y-Y-Y-P-S-D-P-N-T-F-Y-A-P-P-Y-S-A (GYYYPSDPNTFYAPPYSA; tapeworm) [GK-1]
[1]; Brain
  CCL2 concentration: 3.44E+00 pg/mg of protein
  CCL3 concentration: 1.40E+01 pg/mg of protein
  CXCL9 concentration: 1.44E+02 pg/mg of protein
  GM-CSF concentration: 2.53E+01 pg/mg of protein
  IL-1α concentration: 1.44E+01 pg/mg of protein
  IL-2 concentration: 6.02E+01 pg/mg of protein
  IL-4 concentration: 1.36E+02 pg/mg of protein
  IL-5 concentration: 1.18E+02 pg/mg of protein
  IL-12 concentration: 5.29E+00 pg/mg of protein
  IL-17 concentration: 8.06E+01 pg/mg of protein
  TNF-α concentration: 1.26E+01 pg/mg of protein
  bFGF concentration: 1.16E+04 pg/mg of protein
[1]; Lung
  CCL2 concentration: 4.71E+01 pg/mg of protein
  CCL3 concentration: 5.36E+01 pg/mg of protein
  CXCL9 concentration: 3.88E+03 pg/mg of protein
  GM-CSF concentration: 4.06E+01 pg/mg of protein
  IL-1α concentration: 1.50E+02 pg/mg of protein
  IL-2 concentration: 6.28E+01 pg/mg of protein
  IL-4 concentration: 1.49E+02 pg/mg of protein
  IL-5 concentration: 2.06E+02 pg/mg of protein
  IL-12 concentration: 3.83E+00 pg/mg of protein
  IL-17 concentration: 6.22E+00 pg/mg of protein
  TNF-α concentration: 3.21E+01 pg/mg of protein
  bFGF concentration: 3.61E+03 pg/mg of protein
[1]; Spleen
  CCL2 concentration: 1.19E+01 ± 4.41E+00 pg/mg of protein
  CCL3 concentration: 4.99E+01 ± 1.51E+01 pg/mg of protein
  CXCL9 concentration: 2.31E+04 ± 1.36E+04 pg/mg of protein
  GM-CSF concentration: 3.79E+01 ± 1.60E+01 pg/mg of protein
  IL-1α concentration: 6.28E+02 ± 2.42E+02 pg/mg of protein
  IL-2 concentration: 6.65E+01 ± 1.05E+01 pg/mg of protein
  IL-4 concentration: 7.03E+01 ± 9.56E+01 pg/mg of protein
  IL-5 concentration: 1.65E+02 ± 1.00E+02 pg/mg of protein
  IL-12 concentration: 8.06E+01 ± 3.61E+01 pg/mg of protein
  IL-17 concentration: 2.98E+00 ± 3.01E+00 pg/mg of protein
  TNF-α concentration: 1.00E+02 ± 2.46E+01 pg/mg of protein
  bFGF concentration: 2.30E+04 ± 3.54E+03 pg/mg of protein
[1]; serum, liver
  cytokine profile in serum or liver samples versus G2: no differences were found
[2]; a few days after subcutaneous administration
  infiltrate of mononuclear cells to the lung parenchyma: promotes the infiltrate of mononuclear cells
[2]; young and senile mice, influenza vaccine adjuvant
  titer of specific IgG antibodies: increasing the titer of specific IgG antibodies
[3]
  survival with respect to saline-treated mice (Kaplan-Meyer): significantly increased survival
[4]; Females
  Distant (tumors at sites other than the lungs: liver, brain, intestine): 1/10
  Lung (mice with lung tumors): 8/10
  Number of tumors developed (Tumors): 62.9 ± 48.1
[4]; Males
  Distant (tumors at sites other than the lungs: liver, brain, intestine): 0/10
  Lung (mice with lung tumors): 8/10
  Number of tumors developed (Tumors): 77.0 ± 37.6
[4]; lung tumor foci G1 versus G2
  antimetastatic effect in melanoma: ineffective to stop metastasis in melanoma
[5]; GK-1 dissolved in DMSO (0.05%)
  survival rate: 25%
[5]; GK-1 dissolved in ISS
  survival rate: 57.14%
[5]; day 32, GK-1 in DMSO or ISS versus vehicles
  number of tumor foci developed in lungs versus other treatments: no statistically significant differences
[6]
  immune cell activation (CD80/86, MHC-II expression; IFN-γ, TNF-α, CCL2 secretion): promoting T cell, macrophage, and dendritic cells activation
[7]
  proportion of mice with lung metastatic foci within the 0-20 range: 67%
[8]; Exp 1, day 39
  Tumor weight: 0.825 ± 0.391 g
[8]; Exp 2, day 39
  Tumor weight: 0.991 ± 0.507 g
[8]; Exp 3, day 39
  Tumor weight: 1.150 ± 0.939 g
[8]; Exp 4, day 39
  Tumor weight: 1.477 ± 0.889 g
[8]; Exp 5, day 39
  Tumor weight: 0.587 ± 0.339 g
[8]; Total of five experiments, day 39
  Tumor weight: 1.044 ± 0.697 g
[8]; day 39
  reduction in tumor weight with respect to untreated mice: 27.8%
[8]; day 39, text, five experiments
  Tumor weight: 1.04 ± 0.70 g
[8]; every third day for 39 days
  tumor volume versus untreated mice: lower tumor volume than untreated mice, the difference was not statistically significant
[9]
  area of necrotic-apoptotic cells in primary tumor: increase in the area of necrotic-apoptotic cells
[10]
  proliferation of TCD4+ and TCD8+ lymphocyte populations: increase the proliferation
[11]
  mean survival: increased the mean survival
  primary tumor necrosis: increased primary tumor necrosis
  tumor growth rate: delayed tumor growth rate
[12]
  activation of MAGE-loaded DCs: increase in the activation of these DCs
